Test results reported in US20240327359A1, “3-ISOXAZOLIDINONE COMPOUND, PREPARATION METHOD, HERBICIDAL COMPOSITION AND APPLICATION THEREOF” (QINGDAO KINGAGROOT CHEMICAL COMPOUND CO., LTD., priority 2021, published 2024).

Legend:
Format in all cases: in vivo
Abutilon theophrasti = test: Weeding effect in post-emergence stage; conditions: 720 g a.i./ha, 3 weeks after application
Description: (§1) The activity level criteria for plant damage (i.e., growth control rate) are as follows:
(§2) The above growth control rates are fresh weight control rates.
(§3) Monocotyledonous and dicotyledonous weed seeds (Descurainia sophia, Capsella bursa-pastoris, Abutilon theophrasti, Galium aparine, Stellaria media, Lithospermum arvense, Rorippa indica, Alopecurus aequalis, Alopecurus japonicus, Eleusine indica, Beckmannia syzigachne, Sclerochloa dura, Phleum paniculatum, Veronica didyma, Bromus japonicus, Aegilops tauschii, Phalaris arundinacea, Amaranthus retroflexus, Chenopodiaceae, Commelina communis, Sonchus arvensis, Convolvulus arvensis, Cirsium setosum, Solanumnigrum, Acalypha australis, Digitaria sanguinalis, Echinochloa crusgalli, Setaria viridis, Setaria glauca, Leptochloa chinensis, Monochoria vaginalis, Sagittaria trifolia, Scirpus juncoides, Cyperus rotundus, Cyperus iria, Cyperus difformis, Fimbristylis, Portulaca oleracea, Xanthium sibiricum, Pharbitis nil, Conyza Canadensis, etc.) and major crop seeds (wheat, corn, rice, soybean, cotton, oilseed rape, millet, sorghum, potato, sesame, ricinus, etc.) were placed in plastic pots filled with soil, then covered with 0.5-2 cm of soil, allowed to grow in a good greenhouse environment. Two weeks after sowing, the test plants were treated in the 2-3 leaf stage. The tested compounds of the present invention were respectively dissolved in acetone, then added with Tween 80 and 1.5 liter/ha of emulsifiable concentrate of methyl oleate as synergist, diluted with a certain amount of water to obtain a solution of a certain concentration, and sprayed by a spray tower onto the plants. After the application, the plants were cultured for 3 weeks in the greenhouse, and then the experimental results of the weeding were recorded. The doses of the used compounds were 45, 90, 180, 360, 720 g a.i./ha, and the averages were obtained from three replicates.

Alopecurus japonicus = test: Weeding effect in post-emergence stage; conditions: 720 g a.i./ha, 3 weeks after application
Description: as §1, §2, §3

Digitaria sanguinalis = test: Weeding effect in post-emergence stage; conditions: 720 g a.i./ha, 3 weeks after application
Description: as §1, §2, §3

Leptochloa chinensis [1] = test: Weeding effect in post-emergence stage; conditions: 720 g a.i./ha, 3 weeks after application
Description: as §1, §2, §3

Descurainia sophia = test: Weeding effect in pre-emergence stage; conditions: 2 weeks
Description: as §1, §2
(§4) Monocotyledonous and dicotyledonous weed seeds (Descurainia sophia, Capsella bursa-pastoris, Abutilon theophrasti, Galium aparine, Stellaria media, Lithospermum arvense, Rorippa indica, Alopecurus aequalis, Alopecurus japonicus, Eleusine indica, Beckmannia syzigachne, Sclerochloa dura, Phleum paniculatum, Veronica didyma, Bromus japonicus, Aegilops tauschii, Phalaris arundinacea, Amaranthus retroflexus, Chenopodiaceae, Commelina communis, Sonchus arvensis, Convolvulus arvensis, Cirsium setosum, Solanumnigrum, Acalypha australis, Digitaria sanguinalis, Echinochloa crusgalli, Setaria viridis, Setaria glauca, Leptochloa chinensis, Monochoria vaginalis, Sagittaria trifolia, Scirpus juncoides, Cyperus rotundus, Cyperus iria, Cyperus difformis, Fimbristylis, Portulaca oleracea, Xanthium sibiricum, Pharbitis nil, Conyza Canadensis, etc.) and major crop seeds (wheat, corn, rice, soybean, cotton, oilseed rape, millet, sorghum, potato, sesame, ricinus, etc.) were placed in plastic pots filled with soil, then covered with 0.5-2 cm of soil, allowed to grow in a good greenhouse environment. The test plants were treated on the day of sowing. The tested compounds of the present invention were respectively dissolved in acetone, then added with Tween 80, diluted with a certain amount of water to obtain a solution of a certain concentration, and sprayed by a spray tower onto the plants. After the application, the plants were cultured for 2 weeks in the greenhouse, and then the experimental results of the weeding were recorded. The doses of the used compounds were 3, 6, 12, 24, 48 g ai./mu (1 mu=1/15 ha), and the averages were obtained from three replicates.

Echinochloa crusgalli = test: Weeding effect in pre-emergence stage; conditions: 2 weeks
Description: as §1, §2, §4

Leptochloa chinensis [2] = test: Weeding effect in pre-emergence stage; conditions: 2 weeks
Description: as §1, §2, §4

Lolium perenne = test: Weeding effect in pre-emergence stage; conditions: 2 weeks
Description: as §1, §2, §4

Veronica didyma = test: Weeding effect in pre-emergence stage; conditions: 2 weeks
Description: as §1, §2, §4

weeds = test: Activity test of the compositions, soil sealing treatment; conditions: Echinochloa crus-galli, 504 h, Echinochloa crusgalli, soil treatment (S), 21 days, read-out: Control effect (%) of B applied alone (B)
Protocol: (§5) The desired active ingredient B was purchased from a reagent company or synthesized by a known method. The technical materials were all dissolved in acetone and diluted with an aqueous solution containing 0.10% emulsifier Tween-80 which were to be used immediately after dilution.
Weeds are cultivated in a controllable sunlight greenhouse at 20 to 30° C., in natural light, and with relative humidity of 57% to 72%. […] The test soil was filled quantitatively to ¾ of the pots and then watered from the bottom of the pots to completely wet the soil to saturation. The test weed seeds were accelerated to just germinate, and then evenly and quantitatively sowed on the surface, then covered with 0.5-1 cm soil according to the seed size, and ready for use 72 hours after sowing.
(§6) Each treatment was repeated 4 times. Four pots with 20 weed seeds per pot were treated each time.
(§7) The well-sowed test materials were evenly placed on a platform with an area of 0.5 m^2, and solution of agents was sprayed on the soil by the 3WP-2000-type walking spray tower at a dosage of 450 kg/ha and at a spray pressure of 0.3 MPa. After all the solution was sprayed, the valve was closed. After 30 seconds, the door of the spray tower was opened, and the nutritional bowl was taken out. Then the valve was opened, and the spray tube was cleaned by spraying 50 ml of water.
(§8) A method for investigating absolute numbers was employed. Whole seedlings of survival weeds were cut off with a blade along the soil surface, and the fresh weight of the weeds was weighed with an analytical balance. For dead weeds, the fresh weight thereof was zero.
(§9) The investigation was performed 21 days after the treatment for only once in total.

Cirsium setosum = test: Activity test of the compositions, post-emergence treatment by foliage spray; conditions: foliage (F)
Protocol: as §5
Weeds were cultivated by a pot culture method. […] Weed seeds with plump and uniform grains were selected, soaked in lukewarm water at 25° C. for 6 hours, and germinated in a 28° C. biochemical incubator (in darkness). The weed seeds that had just germinated were evenly placed on the surface of the soil and then covered with 0.5-1 cm soil according to the sizes of seeds.
The culture was carried out in a controllable sunlight greenhouse at 20 to 30° C., in natural light, and with relative humidity of 57% to 72%.
as §6
The agents were used for only once in total in the experiment. In the stage of 1.5-2 leaves, the weeds were thinned out to maintain 10 weeds per pot. Ten weeds were kept in each treatment, then continued to be cultured until Echinochloa crus-galli var. zelayensis reached the stage of 2-3 leaves, Cirsium setosum reached the stage of 5-6 leaves, Galium aparine reached the stage of 3-4 whorl leaves, Amaranthus retroflexus reached the stage of 3-5 leaves, Echinochloa crusgalli, Lolium multiflorum and Digitaria sanguinalis reached the stage of 3 leaves with one leaf not fully expanding for further treatment.
as §7, with “well-cultured” for “well-sowed”, “stems and leaves thereof” for “soil”, “water. After the treatment, the weeds were routinely cultured in a greenhouse.” for “water.”
as §8, §9

Compound: CC1(C)CON(Cc2ccccc2Cl)C1=O [Control compound B, clomazone]
- weeding effect in post-emergence stage, activity level (growth control rate) (Abutilon theophrasti): 3 (Level 3: growth control rate is greater than or equal to 40% and less than 60%)
- weeding effect in post-emergence stage, activity level (growth control rate) (Alopecurus japonicus): 4 (Level 4: growth control rate is greater than or equal to 60% and less than 85%)
- weeding effect in post-emergence stage, activity level (growth control rate) (Digitaria sanguinalis): 3 (Level 3: growth control rate is greater than or equal to 40% and less than 60%)
- weeding effect in post-emergence stage, activity level (growth control rate) (Leptochloa chinensis [1]): 4 (Level 4: growth control rate is greater than or equal to 60% and less than 85%)
- weeding effect in pre-emergence stage, activity level (growth control rate) (Descurainia sophia; 3 g a.i./mu): 2 (Level 2: growth control rate is greater than or equal to 15% and less than 30%)
- weeding effect in pre-emergence stage, activity level (growth control rate) (Descurainia sophia; 6 g a.i./mu): 3 (Level 3: growth control rate is greater than or equal to 30% and less than 40%)
- weeding effect in pre-emergence stage, activity level (growth control rate) (Descurainia sophia; 12 g a.i./mu): 7 (Level 7: growth control rate is greater than or equal to 70% and less than 80%)
- weeding effect in pre-emergence stage, activity level (growth control rate) (Descurainia sophia; 24 g a.i./mu): 7 (Level 7: growth control rate is greater than or equal to 70% and less than 80%)
- weeding effect in pre-emergence stage, activity level (growth control rate) (Echinochloa crusgalli; 3 g a.i./mu): 8 (Level 8: growth control rate is greater than or equal to 80% and less than 100%)
- weeding effect in pre-emergence stage, activity level (growth control rate) (Echinochloa crusgalli; 6 g a.i./mu): 9
- weeding effect in pre-emergence stage, activity level (growth control rate) (Echinochloa crusgalli; 12 g a.i./mu): 9
- weeding effect in pre-emergence stage, activity level (growth control rate) (Echinochloa crusgalli; 24 g a.i./mu): 9
- weeding effect in pre-emergence stage, activity level (growth control rate) (Leptochloa chinensis [2]; 3 g a.i./mu): 0
- weeding effect in pre-emergence stage, activity level (growth control rate) (Leptochloa chinensis [2]; 6 g a.i./mu): 4 (Level 4: growth control rate is greater than or equal to 40% and less than 50%)
- weeding effect in pre-emergence stage, activity level (growth control rate) (Leptochloa chinensis [2]; 12 g a.i./mu): 9
- weeding effect in pre-emergence stage, activity level (growth control rate) (Leptochloa chinensis [2]; 24 g a.i./mu): 9
- weeding effect in pre-emergence stage, activity level (growth control rate) (Lolium perenne; 6 g a.i./mu): 1 (Level 1: growth control rate is greater than 0% and less than 15%)
- weeding effect in pre-emergence stage, activity level (growth control rate) (Lolium perenne; 24 g a.i./mu): 9
- weeding effect in pre-emergence stage, activity level (growth control rate) (Veronica didyma; 6 g a.i./mu): 8 (Level 8: growth control rate is greater than or equal to 80% and less than 100%)
- weeding effect in pre-emergence stage, activity level (growth control rate) (Veronica didyma; 12 g a.i./mu): 9
- weeding effect in pre-emergence stage, activity level (growth control rate) (Veronica didyma; 24 g a.i./mu): 9
- pest or weed control at 30 g/ha (weeds; B at 2 g a.i./mu): 33.2%
- pest or weed control at 60 g/ha (weeds; B at 4 g a.i./mu): 46.8%

Compound: CC(C)N1C(=O)c2ccccc2NS1(=O)=O [bentazon]
- Control effect (%) of B applied alone (B) (Cirsium setosum; B 8 g a.i./mu): 12.4%
- Control effect (%) of B applied alone (B) (Cirsium setosum; B 16 g a.i./mu): 25.8%
